Results as given in patent US6894075B2, “4′-demethyl-4′-O-substituted-1-deoxypodophyllotoxin derivative and geometric isomer thereof, process for the preparation thereof and anti-cancer composition comprising the same” (priority 2000, dated 2005).
Where two headings read alike, the source gives them in different places.

Experiments:
A549 cell = assay: Cytotoxicity test (SRB method) for A549 cells; format: cell-based, human; conditions: for cytotoxicity compared with DPT: A549, in words; for ED50(mg/mL) for A549: Table 2
Text: (§1) Human lung carcinomas A549 and […] were used for determining cytotoxicity of the compounds of the present invention according to the Sulfrhodamine-B (SRB) method which was developed by NCI in 1989 in order to determine in vitro anticancer activity of drugs.
(§2) Cells to be used in the experiment were separated from a surface using 0.5% Trypsin-EDTA solution and suspended in a density of 5×10^4 cell/ml therein. The cell suspension was introduced into a 96-well plate in an amount of 180/well and incubated for 24 hours in a 5% CO2 incubator of 37° C. Samples were dissolved in dimethylsulfoxide and then diluted by water distilled in advance for three times just before the experiment. Forty-one (41) samples were prepared into 4 types of final concentrations, i.e., 0.1, 0.03, 0.01 and 0.003 mg per ml of the medium. The diluted sample solutions were added to the 96-well plate in the amount of 20 μl/well and incubated for 48 hours in a CO2 incubator of 37° C. At the time of adding the samples, Tz (Time zero) plate was taken. The medium was removed from the Tz plate and each of the plates after incubation were completed. Ten (10)% […] (TCA) was added in the amount of […], and allowed to stand for 1 hour at 4° C. to fix the cells on the bottom surface of the plate. After the cells were fixed, the plate was washed five to six times with water to completely remove the remaining TCA solution and then dried at room temperature to completely remove the moisture. To the fully dried plate was introduced a dye solution in the amount of […] in which 0.4% SRB was dissolved in 1% acetic acid solution. […] After the dyeing process, the plate was dried again at room temperature. 100 ml of 10 mM Tris solution was added thereto in order to dissolve the dye, and then O.D. (optical density) was determined by microplate reader at 520 nm.
(§3) ED50 values for cancer cells were calculated as follows. The amount of SRB protein was analyzed at the time when incubation started by the addition of the sample. This amount was named time zero (Tz). The O.D. value obtained from a group which was not treated by the sample was named Control group (C) and the O.D. value obtained from a group which was treated by the sample was named Test group (T).
(§4) The degree of cytotoxicity of the compounds was calculated from Tz, C and T values according to the following equation.
(§5) That is, in the case of Tz≧T, the degree was calculated by
(§6) (T−Tz)/(C−Tz)×100(%), and
(§7) • in the case of Tz<T, the degree was calculated by […].
(§8) From the values thus obtained, ED50 value which is defined as the concentration at which growth of the cancer cell is inhibited by 50% was calculated using the regression function of Excel program.

SK-MEL-2 cell = assay: Cytotoxicity test (SRB method) for SK-MEL-2 cells; format: cell-based, human; conditions: SK-MEL-2, SRB, 48 hours incubation
Text: as §1, §2, §3, §4, §5, §6, §7, §8

[1] = A549 human lung cancer cell, SRB, 48 hours incubation, read-out: ED50(nM) for A549
[2] = A549, SRB, Table 2, unit printed in the cell, read-out: ED50 for A549, cells marked

COc1cc(C2c3cc4c(cc3CC3COC(=O)C32)OCO4)cc(OC)c1OC(=O)NCc1ccccc1 (centres unmarked) [Compound 1b-14, 4′-demethyl-4′-O-benzylcarbamoyl-1-deoxypodophyllotoxin]
cytotoxicity compared with DPT (A549 cell): stronger cytotoxicity than DPT
EC50 (A549 cell; [1]): 72 nM

COc1cc(C2c3cc4c(cc3CC3COC(=O)C32)OCO4)cc(OC)c1OC(=O)NC(=O)c1ccccc1 (centres unmarked) [Compound 1b-15, 4′-demethyl-4′-O-benzoylcarbamoyl-1-deoxypodophyllotoxin]
EC50 (A549 cell; [1]): 77 nM

COc1cc(C2c3cc4c(cc3CC3COC(=O)C32)OCO4)cc(OC)c1OC(=O)NS(=O)(=O)c1ccccc1 (centres unmarked) [Compound 1b-16, 4′-demethyl-4′-O-benzenesulfonylcarbamoyl-1-deoxypodophyllo-toxin]
cytotoxicity compared with DPT (A549 cell): stronger cytotoxicity than DPT
EC50 (A549 cell; [1]): 50.6 nM

COc1cc(C=CC(=O)Oc2c(OC)cc(C3c4cc5c(cc4CC4COC(=O)C43)OCO5)cc2OC)cc(OC)c1OC (centres unmarked) [Compound 1c-1, 4′-demethyl-4′-O-(3,4,5-trimethoxyphenylcinnamoyl)-1-deoxypodophyllotoxin]
EC50 (A549 cell; [2]): 108 nM

COc1cc(C2c3cc4c(cc3CC3COC(=O)C32)OCO4)cc(OC)c1OC(=O)Cc1ccc(N(C)C)cc1 (centres unmarked) [Compound 1c-2, 4′-demethyl-4′-O-(4-dimethylaminophenylacetyl)-1-deoxypodophyllotoxin]
EC50 (A549 cell; [2]): 106 nM

COc1cc(C2c3cc4c(cc3CC3COC(=O)C32)OCO4)cc(OC)c1OC(C)=O (centres unmarked) [Compound 1c-3, 4′-demethyl-4′-O-acetyl-1-deoxypodophyllotoxin]
ED50(mg/mL) for A549 (A549 cell; A549, SRB, 48 hours incubation): 0.003 mg/mL
ED50(mg/mL) for SK-MEL-2 (SK-MEL-2 cell): 0.006 mg/mL

CCC(=O)Oc1c(OC)cc(C2c3cc4c(cc3CC3COC(=O)C32)OCO4)cc1OC (centres unmarked) [Compound 1c-4, 4′-demethyl-4′-O-propanoyl-1-deoxypodophyllotoxin]
ED50(mg/mL) for A549 (A549 cell; A549, SRB, 48 hours incubation): 0.004 mg/mL
ED50(mg/mL) for SK-MEL-2 (SK-MEL-2 cell): 0.010 mg/mL

CCCC(=O)Oc1c(OC)cc(C2c3cc4c(cc3CC3COC(=O)C32)OCO4)cc1OC (centres unmarked) [Compound 1c-5, 4′-demethyl-4′-O-butanoyl-1-deoxypodophyllotoxin]
ED50(mg/mL) for A549 (A549 cell; A549, SRB, 48 hours incubation): 0.005 mg/mL
ED50(mg/mL) for SK-MEL-2 (SK-MEL-2 cell): 0.017 mg/mL

COc1cc(C2c3cc4c(cc3CC3COC(=O)C32)OCO4)cc(OC)c1OC(=O)CC(C)C (centres unmarked) [Compound 1c-6, 4′-demethyl-4′-O-(3′-methylbutanoyl)-1-deoxypodophyllotoxin]
ED50(mg/mL) for A549 (A549 cell; A549, SRB, 48 hours incubation): 0.006 mg/mL
ED50(mg/mL) for SK-MEL-2 (SK-MEL-2 cell): 0.089 mg/mL

CCCCCCC(=O)Oc1c(OC)cc(C2c3cc4c(cc3CC3COC(=O)C32)OCO4)cc1OC (centres unmarked) [Compound 1c-7, 4′-demethyl-4′-O-heptanoyl-1-deoxypodophyllotoxin]
ED50(mg/mL) for A549 (A549 cell; A549, SRB, 48 hours incubation): 0.013 mg/mL
ED50(mg/mL) for SK-MEL-2 (SK-MEL-2 cell): 0.078 mg/mL

CCCCCCCC(=O)Oc1c(OC)cc(C2c3cc4c(cc3CC3COC(=O)C32)OCO4)cc1OC (centres unmarked) [Compound 1c-8, 4′-demethyl-4′-O-octanoyl-1-deoxypodophyllotoxin]
ED50(mg/mL) for A549 (A549 cell; A549, SRB, 48 hours incubation): 0.009 mg/mL
ED50(mg/mL) for SK-MEL-2 (SK-MEL-2 cell): 0.030 mg/mL

CCCCCCCCCC(=O)Oc1c(OC)cc(C2c3cc4c(cc3CC3COC(=O)C32)OCO4)cc1OC (centres unmarked) [Compound 1c-9, 4′-demethyl-4′-O-decanoyl-1-deoxypodophyllotoxin]
ED50(mg/mL) for A549 (A549 cell; A549, SRB, 48 hours incubation): 0.027 mg/mL
ED50(mg/mL) for SK-MEL-2 (SK-MEL-2 cell): 0.004 mg/mL

COc1cc(C2c3cc4c(cc3CC3COC(=O)C32)OCO4)cc(OC)c1OC(=O)c1ccccc1 (centres unmarked) [Compound 1c-10, 4′-demethyl-4′-O-benzoyl-1-deoxypodophyllotoxin]
ED50(mg/mL) for A549 (A549 cell; A549, SRB, 48 hours incubation): 0.095 mg/mL
ED50(mg/mL) for SK-MEL-2 (SK-MEL-2 cell): 0.066 mg/mL

CCCCCCCCCCCC(=O)Oc1c(OC)cc(C2c3cc4c(cc3CC3COC(=O)C32)OCO4)cc1OC (centres unmarked) [Compound 1c-11, 4′-demethyl-4′-O-dodecanoyl-1-deoxypodophyllotoxin]
ED50(mg/mL) for A549 (A549 cell; A549, SRB, 48 hours incubation): 0.030 mg/mL
ED50(mg/mL) for SK-MEL-2 (SK-MEL-2 cell): 0.025 mg/mL

CCCCCCCCCCCCCC(=O)Oc1c(OC)cc(C2c3cc4c(cc3CC3COC(=O)C32)OCO4)cc1OC (centres unmarked) [Compound 1c-12, 4′-demethyl-4′-O-tetradecanoyl-1-deoxypodophyllotoxin]
ED50(mg/mL) for A549 (A549 cell; A549, SRB, 48 hours incubation): 0.041 mg/mL
ED50(mg/mL) for SK-MEL-2 (SK-MEL-2 cell): 0.050 mg/mL

CCCCCCCCCCCCCCCC(=O)Oc1c(OC)cc(C2c3cc4c(cc3CC3COC(=O)C32)OCO4)cc1OC (centres unmarked) [Compound 1c-13, 4′-demethyl-4′-O-hexadecanoyl-1-deoxypodophyllotoxin]
ED50(mg/mL) for A549 (A549 cell; A549, SRB, 48 hours incubation): 0.268 mg/mL
ED50(mg/mL) for SK-MEL-2 (SK-MEL-2 cell): 0.290 mg/mL
